Legend:
[1] = molecular target: Recombinant Btk (Homo sapiens, UniProt Q06187); test: Kinase activity (BTK) inhibition assay, TR-FRET; type: biochemical; details: read-out: BTK kinase inhibitory activity grade (A/B/C)
Procedure: Kinase Activity (BTK) Inhibition Assay
The inhibitory effects of the compounds disclosed herein on BTK kinase activity were tested in an assay based on a time resolved fluorescence resonance energy transfer (TR-FRET) method. Recombinant Btk was pre-incubated with the compound disclosed herein in an assay buffer containing 50 mM. Tris pH 7.4, 10 mM MgCl2, 2 mM MnCl2, 0.1 mM EDTA, 1 mM DTT, 20 nM SEB, 0.1% BSA, 0.005% tween-20 at room temperature for 1 hour. The reaction was initiated by the addition of ATP (at the ATP Km concentration) and the peptide substrate (Biotin-[…]-NH2). After incubation for 1 hour at room temperature, an equal volume of stop solution containing 50 mM HEPES pH 7.0, 800 mM KF, 20 mM EDTA, 0.1% BSA, p-Tyr66 antibody linked with Eu cryptate and streptavidin-labeled XL665 was added to stop the reaction. The plate was incubated for an additional hour at room temperature and then the TR-FRET signal was read on a BMG PHERAstar FS instrument (ex337 nm, em 620 nm/665 nm). Based on the ratio of the signal of fluorescence at […] to 665 nm, the enzyme activity was calculated with an increased compound concentration. IC50 of each compound was obtained by fitting the data to the four-parameter equation of Graphpad Prism software.

[2] = molecular target: LCK (Homo sapiens, UniProt P06239); test: In vitro kinase selectivity assay, LCK (Z'-Lyte); type: biochemical; details: read-out: LCK kinase inhibitory activity grade
Procedure: (§1) The assay platform for EGFR and ITK kinase activities was established using time-resolved fluorescence resonance energy transfer-based method; the assay platform for LCK, SRC and LYN kinase activities was established using Z′-Lyte method; and the assay platform for TEC and JAK3 kinase activities was established using Lance Ultra method. The inhibitory effects of the compounds disclosed herein on different kinase activities were tested separately for each compound at 11 concentrations. The IC50 value of each compound was calculated using Graphpad Prism software.

[3] = molecular target: SRC (Homo sapiens, UniProt P12931); test: In vitro kinase selectivity assay, SRC (Z'-Lyte); type: biochemical; details: read-out: SRC kinase inhibitory activity grade
Procedure: as §1

[4] = molecular target: LYN (Homo sapiens, UniProt P07948); test: In vitro kinase selectivity assay, LYN (Z'-Lyte); type: biochemical; details: read-out: LYN kinase inhibitory activity grade
Procedure: as §1

[5] = molecular target: EGFR (Homo sapiens, UniProt P00533); test: In vitro kinase selectivity assay, EGFR (TR-FRET); type: biochemical; details: read-out: EGFR kinase inhibitory activity grade
Procedure: as §1

[6] = molecular target: T1, ITK (Homo sapiens, UniProt Q08881); test: In vitro kinase selectivity assay, ITK (TR-FRET); type: biochemical; details: read-out: ITK kinase inhibitory activity grade
T1 sequence (Q08881 1-620): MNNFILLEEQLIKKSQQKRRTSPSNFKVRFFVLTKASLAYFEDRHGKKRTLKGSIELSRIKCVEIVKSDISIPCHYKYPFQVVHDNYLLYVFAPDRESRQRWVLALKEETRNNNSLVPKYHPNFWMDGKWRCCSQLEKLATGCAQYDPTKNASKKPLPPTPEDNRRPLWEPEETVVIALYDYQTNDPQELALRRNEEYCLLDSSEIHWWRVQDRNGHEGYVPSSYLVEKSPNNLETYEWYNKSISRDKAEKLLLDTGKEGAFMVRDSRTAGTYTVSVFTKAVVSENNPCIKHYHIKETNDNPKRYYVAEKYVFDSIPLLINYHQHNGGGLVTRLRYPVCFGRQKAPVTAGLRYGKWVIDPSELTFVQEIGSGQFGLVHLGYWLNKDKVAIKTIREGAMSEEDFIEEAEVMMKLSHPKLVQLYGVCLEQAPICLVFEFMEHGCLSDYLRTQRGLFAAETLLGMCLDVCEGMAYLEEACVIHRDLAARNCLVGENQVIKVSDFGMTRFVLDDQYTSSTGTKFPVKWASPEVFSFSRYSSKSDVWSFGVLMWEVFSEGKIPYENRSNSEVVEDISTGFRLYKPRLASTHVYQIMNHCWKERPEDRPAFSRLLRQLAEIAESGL
Procedure: as §1

[7] = molecular target: T2, TEC (Homo sapiens, UniProt P42680); test: In vitro kinase selectivity assay, TEC (Lance Ultra); type: biochemical; details: read-out: TEC kinase inhibitory activity grade
T2 sequence (P42680 1-631): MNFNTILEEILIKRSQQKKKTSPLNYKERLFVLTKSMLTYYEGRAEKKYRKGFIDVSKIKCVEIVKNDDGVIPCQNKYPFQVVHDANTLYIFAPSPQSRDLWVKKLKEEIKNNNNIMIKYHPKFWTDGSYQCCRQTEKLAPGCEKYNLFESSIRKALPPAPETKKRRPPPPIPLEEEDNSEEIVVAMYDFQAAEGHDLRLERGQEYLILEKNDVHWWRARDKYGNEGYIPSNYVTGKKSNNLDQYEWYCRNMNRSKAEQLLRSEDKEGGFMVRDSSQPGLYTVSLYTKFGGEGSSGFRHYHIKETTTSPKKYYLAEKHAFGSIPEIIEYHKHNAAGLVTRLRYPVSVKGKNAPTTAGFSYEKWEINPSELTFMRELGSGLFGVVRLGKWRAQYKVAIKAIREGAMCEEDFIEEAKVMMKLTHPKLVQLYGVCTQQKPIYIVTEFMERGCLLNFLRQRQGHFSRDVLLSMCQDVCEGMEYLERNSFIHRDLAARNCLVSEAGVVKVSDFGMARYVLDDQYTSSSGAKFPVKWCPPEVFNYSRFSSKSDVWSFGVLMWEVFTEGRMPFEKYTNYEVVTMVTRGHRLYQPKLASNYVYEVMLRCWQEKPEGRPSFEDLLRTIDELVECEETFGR
Procedure: as §1

[8] = system: diffuse large B-cell lymphoma cell line TMD-8; test: Pharmacodynamic assay, TMD-8 xenograft in NOD.SCID mice; type: in vivo; details: p.o. daily for 21 days
Procedure: Severe immunodeficiency NOD.SCID mice were purchased from Beijing Vital River Laboratory Animal Technology Co., Ltd., and were housed in SPF grade animal room. After TMD-8 cells were cultured to the sufficient amount, the cells were collected by centrifugation and washed twice with PBS. Finally, the cells were resuspended in serum-free RPMI 1640 medium plus Matrigel (1:1 v/v). 0.2 ml of cell suspension was injected subcutaneously on the right flank of each mouse using 1 ml syringe and 25 G syringe needle. The tumor size was measured with a caliper after about one week post injection. The tumor volume was calculated according to the following formula: tumor volume=(length×width^2)/2. When the tumor volume reached about 100-200 mm^3, the mice were grouped and p.o. administered daily for 21 days.

Sequence of Recombinant Btk (Q06187 whole entry): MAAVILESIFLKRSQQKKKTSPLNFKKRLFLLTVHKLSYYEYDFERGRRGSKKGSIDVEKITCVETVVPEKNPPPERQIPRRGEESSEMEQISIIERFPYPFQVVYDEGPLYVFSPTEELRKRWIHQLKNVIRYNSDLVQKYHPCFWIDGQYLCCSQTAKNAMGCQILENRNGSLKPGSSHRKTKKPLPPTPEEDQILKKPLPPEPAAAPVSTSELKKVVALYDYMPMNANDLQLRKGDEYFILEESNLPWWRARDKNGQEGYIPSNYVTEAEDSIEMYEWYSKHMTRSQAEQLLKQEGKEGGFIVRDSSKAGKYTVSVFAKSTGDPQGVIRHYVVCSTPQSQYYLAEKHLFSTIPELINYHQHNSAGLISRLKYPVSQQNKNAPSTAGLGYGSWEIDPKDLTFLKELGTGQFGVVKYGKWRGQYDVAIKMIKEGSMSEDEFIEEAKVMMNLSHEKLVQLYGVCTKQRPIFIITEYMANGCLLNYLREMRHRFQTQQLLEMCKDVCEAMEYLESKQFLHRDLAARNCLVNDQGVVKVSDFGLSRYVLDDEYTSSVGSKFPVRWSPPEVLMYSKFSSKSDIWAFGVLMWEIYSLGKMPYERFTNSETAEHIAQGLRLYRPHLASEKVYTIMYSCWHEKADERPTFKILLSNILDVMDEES
Sequence of EGFR (P00533 25-1210): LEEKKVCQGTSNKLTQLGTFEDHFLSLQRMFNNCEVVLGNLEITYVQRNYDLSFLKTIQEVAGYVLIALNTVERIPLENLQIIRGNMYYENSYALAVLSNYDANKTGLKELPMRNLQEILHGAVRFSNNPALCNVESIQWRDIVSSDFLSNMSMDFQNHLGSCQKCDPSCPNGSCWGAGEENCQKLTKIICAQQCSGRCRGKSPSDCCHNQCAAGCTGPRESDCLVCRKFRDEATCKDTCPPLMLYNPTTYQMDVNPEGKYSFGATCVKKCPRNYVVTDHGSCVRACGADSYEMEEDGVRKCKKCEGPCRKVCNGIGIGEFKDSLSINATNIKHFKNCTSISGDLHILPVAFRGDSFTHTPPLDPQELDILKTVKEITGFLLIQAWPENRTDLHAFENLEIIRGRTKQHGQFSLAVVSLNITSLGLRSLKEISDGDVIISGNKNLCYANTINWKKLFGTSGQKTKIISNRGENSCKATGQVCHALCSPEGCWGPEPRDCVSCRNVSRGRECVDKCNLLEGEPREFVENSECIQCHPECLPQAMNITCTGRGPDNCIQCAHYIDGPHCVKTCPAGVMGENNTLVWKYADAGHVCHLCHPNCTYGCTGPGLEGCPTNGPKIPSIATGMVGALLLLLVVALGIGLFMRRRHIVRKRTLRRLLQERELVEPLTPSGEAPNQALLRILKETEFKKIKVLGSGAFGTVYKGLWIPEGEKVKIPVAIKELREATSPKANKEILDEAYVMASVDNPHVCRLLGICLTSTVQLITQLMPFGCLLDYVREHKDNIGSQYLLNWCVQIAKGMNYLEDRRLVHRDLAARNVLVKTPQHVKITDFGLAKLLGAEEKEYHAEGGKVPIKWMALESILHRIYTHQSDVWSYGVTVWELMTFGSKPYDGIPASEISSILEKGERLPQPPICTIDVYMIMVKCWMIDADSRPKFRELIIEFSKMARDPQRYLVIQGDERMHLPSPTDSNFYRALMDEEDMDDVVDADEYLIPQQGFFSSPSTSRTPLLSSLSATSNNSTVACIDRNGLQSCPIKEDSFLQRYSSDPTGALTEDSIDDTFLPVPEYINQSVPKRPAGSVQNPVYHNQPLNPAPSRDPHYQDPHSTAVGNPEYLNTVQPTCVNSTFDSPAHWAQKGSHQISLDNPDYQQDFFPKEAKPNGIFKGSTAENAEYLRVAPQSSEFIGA
Sequence of LCK (P06239 whole entry, species assumed): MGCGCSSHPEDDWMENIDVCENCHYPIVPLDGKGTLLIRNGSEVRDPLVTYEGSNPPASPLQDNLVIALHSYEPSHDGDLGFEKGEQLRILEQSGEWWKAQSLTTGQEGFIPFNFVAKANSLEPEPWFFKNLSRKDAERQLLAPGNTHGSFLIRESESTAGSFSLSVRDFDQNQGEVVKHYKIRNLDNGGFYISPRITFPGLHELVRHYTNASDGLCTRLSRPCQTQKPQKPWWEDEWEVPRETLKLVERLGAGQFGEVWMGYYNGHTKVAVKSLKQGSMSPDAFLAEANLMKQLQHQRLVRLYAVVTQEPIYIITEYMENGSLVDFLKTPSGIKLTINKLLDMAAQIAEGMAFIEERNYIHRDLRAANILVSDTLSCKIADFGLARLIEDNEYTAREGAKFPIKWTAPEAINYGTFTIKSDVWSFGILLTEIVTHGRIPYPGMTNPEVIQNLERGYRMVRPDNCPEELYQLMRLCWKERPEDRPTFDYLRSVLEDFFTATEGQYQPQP
Sequence of SRC (P12931 whole entry, species assumed): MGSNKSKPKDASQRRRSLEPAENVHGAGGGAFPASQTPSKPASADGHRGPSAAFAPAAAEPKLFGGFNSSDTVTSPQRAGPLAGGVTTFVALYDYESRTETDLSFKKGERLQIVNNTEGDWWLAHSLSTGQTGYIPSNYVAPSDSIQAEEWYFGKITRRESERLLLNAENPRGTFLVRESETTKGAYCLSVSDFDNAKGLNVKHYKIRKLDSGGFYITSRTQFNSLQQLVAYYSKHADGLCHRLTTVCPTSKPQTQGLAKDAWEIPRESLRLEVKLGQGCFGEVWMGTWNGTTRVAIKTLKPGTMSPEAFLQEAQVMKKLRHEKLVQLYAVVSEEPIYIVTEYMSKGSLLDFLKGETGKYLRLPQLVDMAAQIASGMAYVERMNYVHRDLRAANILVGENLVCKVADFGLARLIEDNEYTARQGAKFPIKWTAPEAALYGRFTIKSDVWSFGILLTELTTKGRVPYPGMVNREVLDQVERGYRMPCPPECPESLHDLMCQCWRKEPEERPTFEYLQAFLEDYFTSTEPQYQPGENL
Sequence of LYN (P07948 whole entry, species assumed): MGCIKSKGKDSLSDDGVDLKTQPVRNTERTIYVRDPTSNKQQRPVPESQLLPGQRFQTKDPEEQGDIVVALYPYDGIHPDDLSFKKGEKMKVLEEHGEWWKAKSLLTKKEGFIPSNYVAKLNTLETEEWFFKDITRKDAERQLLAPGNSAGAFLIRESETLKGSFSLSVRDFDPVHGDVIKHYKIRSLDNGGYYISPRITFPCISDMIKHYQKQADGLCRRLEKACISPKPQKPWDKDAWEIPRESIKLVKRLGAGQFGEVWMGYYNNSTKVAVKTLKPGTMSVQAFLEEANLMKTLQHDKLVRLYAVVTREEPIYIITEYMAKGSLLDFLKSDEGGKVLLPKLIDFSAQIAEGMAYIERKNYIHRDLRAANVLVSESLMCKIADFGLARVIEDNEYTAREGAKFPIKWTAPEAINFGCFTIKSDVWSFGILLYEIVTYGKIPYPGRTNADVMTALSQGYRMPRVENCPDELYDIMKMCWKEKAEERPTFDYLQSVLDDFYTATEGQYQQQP

Row | SMILES | IC50 [1] | also measured
1 | C[C@H]1CC[C@@H](n2nc(-c3ccc(Oc4ccc(Cl)cn4)cc3)c(C(N)=O)c2N)CN1C#N [WS-401, 5-amino-3-(4-((5-chloropyridin-2-yl)oxy)phenyl)-1-((3R,6S)-1-cyano-6-methylpiperidin-3-yl)-1H-pyrazole-4-carboxamide] | < 100 nM | 
2 | C[C@@H]1CC[C@H](n2nc(-c3ccc(Oc4ccc(Cl)cn4)cc3)c(C(N)=O)c2N)CN1C#N [WS-402, 5-amino-3-(4-((5-chloropyridin-2-yl)oxy)phenyl)-1-((3S,6R)-1-cyano-6-methylpiperidin-3-yl)-1H-pyrazole-4-carboxamide] | 100 to 1000 nM | 
3 | C[C@@H]1CC[C@@H](n2nc(-c3ccc(Oc4ccc(Cl)cn4)cc3)c(C(N)=O)c2N)CN1C#N [WS-403, 5-amino-3-(4-((5-chloropyridin-2-yl)oxy)phenyl)-1-((3R,6R)-1-cyano-6-methylpiperidin-3-yl)-1H-pyrazole-4-carboxamide] | 100 to 1000 nM | 
4 | C[C@H]1CC[C@H](n2nc(-c3ccc(Oc4ccc(Cl)cn4)cc3)c(C(N)=O)c2N)CN1C#N [WS-404, 5-amino-3-(4-((5-chloropyridin-2-yl)oxy)phenyl)-1-((3S,6S)-1-cyano-6-methylpiperidin-3-yl)-1H-pyrazole-4-carboxamide] | 100 to 1000 nM | 
5 | N#CN1CC(n2nc(-c3ccc(Oc4ccc(Cl)cn4)cc3)c(C(N)=O)c2N)CCC12CC2 (stereo not shown) [WS-405, 5-amino-3-(4-((5-chloropyridin-2-yl)oxy)phenyl)-1-(4-cyano-4-azaspiro[2.5]oct-6-yl)-1H-pyrazole-4-carboxamide] | < 100 nM | 
6 | NC(=O)c1c(-c2ccc(Oc3ccc(Cl)cn3)cc2)nn(C2CCC3(CC3)N(C(=O)/C=C/CO)C2)c1N (stereo not shown) [WS-406, (E)-5-amino-3-(4-((5-chloropyridin-2-yl)oxy)phenyl)-1-(4-(4-hydroxybut-2-enoyl)-4-azaspiro[2.5]oct-6-yl)-1H-pyrazole-4-carboxamide] | < 100 nM | 
7 | C=CC(=O)N1CC(n2nc(-c3ccc(Oc4ccc(Cl)cn4)cc3)c(C(N)=O)c2N)CCC12CC2 (stereo not shown) [WS-407, 1-(4-acryloyl-4-azaspiro[2.5]oct-6-yl)-5-amino-3-(4-((5-chloropyridin-2-yl)oxy)phenyl)-1H-pyrazole-4-carboxamide] | < 100 nM | 
8 | N#CN1CC(n2nc(-c3ccc(Oc4ccc(F)cc4F)cc3)c(C(N)=O)c2N)CCC12CC2 (stereo not shown) [WS-408, 5-amino-1-(4-cyano-4-azaspiro[2.5]oct-6-yl)-3-(4-(2,4-difluorophenoxy)phenyl)-1H-pyrazole-4-carboxamide] | < 100 nM | 
9 | NC(=O)c1c(-c2ccc(Oc3ccc(F)cc3F)cc2)nn(C2CCC3(CC3)N(C(=O)/C=C/CO)C2)c1N (stereo not shown) [WS-409, (E)-5-amino-3-(4-(2,4-difluorophenoxy)phenyl)-1-(4-(4-hydroxybut-2-enoyl)-4-azaspiro[2.5]oct-6-yl)-1H-pyrazole-4-carboxamide] | < 100 nM | 
10 | C=CC(=O)N1CC(n2nc(-c3ccc(Oc4ccc(F)cc4F)cc3)c(C(N)=O)c2N)CCC12CC2 (stereo not shown) [WS-410, 1-(4-acryloyl-4-azaspiro[2.5]oct-6-yl)-5-amino-3-(4-(2,4-difluorophenoxy)phenyl)-1H-pyrazole-4-carboxamide] | < 100 nM | 
11 | N#CN1C[C@H](n2nc(-c3ccc(Oc4ccc(F)cc4F)cc3)c(C(N)=O)c2N)CCC12CC2 [WS-411, (R)-5-amino-1-(4-cyano-4-azaspiro[2.5]oct-6-yl)-3-(4-(2,4-difluorophenoxy)phenyl)-1H-pyrazole-4-carboxamide] | < 100 nM | IC50 [2]: 100 to 1000 nM; IC50 [3]: > 1000 nM; IC50 [4]: 100 to 1000 nM; IC50 [5]: > 1000 nM; IC50 [6]: > 1000 nM; IC50 [7]: < 100 nM; growth of TMD-8 tumor in vivo [8]: significantly inhibited the growth
12 | N#CN1C[C@@H](n2nc(-c3ccc(Oc4ccc(F)cc4F)cc3)c(C(N)=O)c2N)CCC12CC2 [WS-412, (S)-5-amino-1-(4-cyano-4-azaspiro[2.5]oct-6-yl)-3-(4-(2,4-difluorophenoxy)phenyl)-1H-pyrazole-4-carboxamide] | > 1000 nM | 
13 | N#CN1C[C@H](n2nc(-c3ccc(Oc4ccc(Cl)cn4)cc3)c(C(N)=O)c2N)CCC12CC2 [WS-413, (R)-5-amino-3-(4-((5-chloropyridin-2-yl)oxy)phenyl)-1-(4-cyano-4-azaspiro[2.5]oct-6-yl)-1H-pyrazole-4-carboxamide] | < 100 nM | IC50 [2]: > 1000 nM; IC50 [3]: > 1000 nM; IC50 [4]: > 1000 nM; IC50 [5]: 100 to 1000 nM; IC50 [6]: > 1000 nM; IC50 [7]: < 100 nM; growth of TMD-8 tumor in vivo [8]: significantly inhibited the growth
14 | N#CN1C[C@@H](n2nc(-c3ccc(Oc4ccc(Cl)cn4)cc3)c(C(N)=O)c2N)CCC12CC2 [WS-414, (S)-5-amino-3-(4-((5-chloropyridin-2-yl)oxy)phenyl)-1-(4-cyano-4-azaspiro[2.5]oct-6-yl)-1H-pyrazole-4-carboxamide] | 100 to 1000 nM | 
15 | CC#CC(=O)N1C[C@@H](n2nc(-c3ccc(Oc4ccc(Cl)cn4)cc3)c(C(N)=O)c2N)CCC12CC2 [WS-417] | 100 to 1000 nM | 
16 | CC#CC(=O)N1C[C@H](n2nc(-c3ccc(Oc4ccc(F)cc4F)cc3)c(C(N)=O)c2N)CCC12CC2 [WS-421, (R)-5-amino-1-(4-(2-butynoyl)-4-azaspiro[2.5]oct-6-yl)-3-(4-(2,4-difluorophenoxy)phenyl)-1H-pyrazole-4-carboxamide] | < 100 nM | 
17 | CC#CC(=O)N1C[C@H](n2nc(-c3ccc(Oc4ccc(F)cc4F)cc3)c(C(N)=O)c2N)CCC12CC2 [WS-422, (R)-5-amino-1-(4-(2-butynoyl)-4-azaspiro[2.5]oct-6-yl)-3-(4-(2,4-difluorophenoxy)phenyl)-1H-pyrazole-4-carboxamide] |  | growth of TMD-8 tumor in vivo [8]: significantly inhibited the growth

Reference: US10882843B2, “5-aminopyrazole carboxamide derivative as BTK inhibitor and preparation method and pharmaceutical composition thereof” (SUZHOU SINOVENT PHARMACEUTICALS CO., LTD., priority 2016, dated 2021)
